Values of other authors in US20100227030A1, “METHOD FOR THE CONSERVATION OF A PLANT MATERIAL” (priority 2007, published 2010).

Conditions: at 20° C

Maximal solubility: 68.9 g/100 g water
Structure (SMILES): OC[C@H]1O[C@H](O[C@H]2O[C@H](CO)[C@@H](O)[C@H](O)[C@H]2O)[C@H](O)[C@@H](O)[C@@H]1O [trehalose]
